Key:
[1] = system: rat brain type IIA sodium channel; test: [14C]Guanidinium ion influx assay, rat brain type IIA sodium channel in CHO cells; type: cell-based
Method: Chinese hamster ovary cells stably expressing the rat brain type IIA sodium channel subunit were maintained in RPMI 1640 with 10% fetal bovine serum and […] G-418. Chinese hamster lung cells stably expressing the human heart (hH1a) sodium channel subunit were maintained in DMEM with 5% fetal bovine serum and 300 μg/ml G-418. Both cells were subcultured and grown to confluence in 24-well plates 2-3 days before each experiment. After the growth medium was removed, the cells were washed with warm buffer (25 mM Hepes-Tris, 135 mM choline chloride, 5.4 mM potassium chloride, 0.98 mM magnesium sulfate, 5.5 mM glucose, and 1 mg/ml BSA, pH 7.4) and incubated in buffer on a 36° C. slide warmer for approximately 10 minutes. Various concentrations of the test compounds or standard sodium channel blockers (10 μl) and then veratridine (100 μM) were added to each well. After the cells were exposed to veratridine for 5 minutes, 5 μM of [^14 C]guanidinium was added, incubated with the radioligand, washed with 4 ml of ice-cold buffer, and dissolved in 0.1N sodium hydroxide. The radioactivity and the protein concentration of each cell lysate were determined by liquid scintillation counting and the protein assay using Pierce BCA reagent.

[2] = system: [3H]STX binding site on the rat brain sodium channel; test: [3H]STX binding assay
Method: The following assays characterize the interaction of the compounds of Formula I with ligand binding sites on voltage-gated sodium channels.
Frozen tissues were obtained from Pel-Freez Biologicals (Rogers, AR). Tissues were homogenized in 10 volumes of a Tris-sucrose buffer (10 mM Tris-HCl, 250 mM sucrose, pH 7.4 at 4° C.) using 10 strokes with a glass-glass, hand-held homogenizer. The homogenates were filtered through nylon mesh and then centrifuged at 1,000×g for 15 minutes. The pellets were resuspended in a Hepes buffer (50 mM Hepes, 130 mM choline chloride, 5 mM glucose, 5.4 mM KCl, pH 7.4 at 4° C.). The resuspended pellets were centrifuged at 1,000×g for 15 minutes, resuspended in a Hepes buffer (50 mM Hepes, 130 mM choline chloride, 5 mM glucose, 5.4 mM KCl, pH 7.4 at 25° C.) and, frozen at -70° C. until used in binding assays.
Membranes as prepared in Example 10A above were incubated at 37° C. for 30 minutes in 250 μl of a Hepes buffer (50 mM Hepes, 130 mM choline chloride, 5.5 mM glucose, 0.8 mM MgSO4, 5.4 mM KCl, pH 7.4 at 37° C.) containing 1 nM [^3 H]STX. Nonspecific binding was defined with 1 μM tetrodotoxin (TTX). […] The filters were rinsed with 3×1 ml ice cold H2 O and the bound radioactivity determined in a Packard 1900 liquid scintillation counter using Aquasol scintillation fluid.

neuropathic pain models = test: Neuropathic pain models / standard assays (summary statements); type: in vivo; settings: vs methylamine and propylamine analogues and isomers thereof

How did the “inhibition of veratridine-stimulated [14C]Guanidinium ion influx” value [1] turn out when CCNC(C)COc1c(C)cccc1C (racemic) [Formula I racemate, [2-(2,6-dimethylphenoxy)-1-methylethyl]-ethylamine] was run?
Its value is “inhibited”.

And the “affinity for the [3H]STX binding site” value [2]?
Its value is “no detectable affinity”.

And the “activity in standard assays compared with close analogues” value (neuropathic pain models)?
Its value is “unexpectedly more active”.

From patent US5688830A, “Treatment of neuropathic pain” (Syntex (U.S.A.) Inc., priority 1997, dated 1997)
